# Reference: the supplement of paper PMC11451515
# Tested on: SEM cells
# Assay: cell viability relative to DMSO control; higher = less cytotoxic
# Details: 48 h
# Procedure, shortened: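 NOMO1 or SEM (500 cells/well) or P12-Ichikawa (1000 cells/well) leukemia cells were adapted for at least four passages in each medium. They were seeded in 1536-well plates (5 μl) and pin-dosed with library compounds in DMSO over an 11-point threefold series, 47 μM to 0.79 nM. CellTiter-Glo One luminescence was read after 48 h at 37°C. Viability is the per-plate percentage relative to DMSO wells, with cell-free wells as background.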
# [1] = HPLM + 10% dialyzed FBS, 0.000781 µM
# [2] = HPLM + 10% dialyzed FBS, 0.00234 µM
# [3] = HPLM + 10% dialyzed FBS, 0.00702 µM
# [4] = HPLM + 10% dialyzed FBS, 0.0211 µM
# [5] = HPLM + 10% dialyzed FBS, 0.0632 µM
# [6] = HPLM + 10% dialyzed FBS, 0.19 µM
# [7] = HPLM + 10% dialyzed FBS, 0.569 µM
# [8] = HPLM + 10% dialyzed FBS, 1.71 µM
# [9] = HPLM + 10% dialyzed FBS, 5.12 µM
# [10] = HPLM + 10% dialyzed FBS, 15.4 µM
# [11] = HPLM + 10% dialyzed FBS, 46.1 µM
# [12] = RPMI 5 mM glucose + 10% FBS, 0.000781 µM
# [13] = RPMI 5 mM glucose + 10% FBS, 0.00234 µM
# [14] = RPMI 5 mM glucose + 10% FBS, 0.00702 µM
# [15] = RPMI 5 mM glucose + 10% FBS, 0.0211 µM
# [16] = RPMI 5 mM glucose + 10% FBS, 0.0632 µM
# [17] = RPMI 5 mM glucose + 10% FBS, 0.19 µM
# [18] = RPMI 5 mM glucose + 10% FBS, 0.569 µM
# [19] = RPMI 5 mM glucose + 10% FBS, 1.71 µM
# [20] = RPMI 5 mM glucose + 10% FBS, 5.12 µM
# [21] = RPMI 5 mM glucose + 10% FBS, 15.4 µM
# [22] = RPMI 5 mM glucose + 10% FBS, 46.1 µM
# [23] = RPMI 5 mM glucose + 10% dialyzed FBS, 0.000781 µM
# [24] = RPMI 5 mM glucose + 10% dialyzed FBS, 0.00234 µM
# [25] = RPMI 5 mM glucose + 10% dialyzed FBS, 0.00702 µM
# [26] = RPMI 5 mM glucose + 10% dialyzed FBS, 0.0211 µM
# [27] = RPMI 5 mM glucose + 10% dialyzed FBS, 0.0632 µM
# [28] = RPMI 5 mM glucose + 10% dialyzed FBS, 0.19 µM
# [29] = RPMI 5 mM glucose + 10% dialyzed FBS, 0.569 µM
# [30] = RPMI 5 mM glucose + 10% dialyzed FBS, 1.71 µM
# [31] = RPMI 5 mM glucose + 10% dialyzed FBS, 5.12 µM
# [32] = RPMI 5 mM glucose + 10% dialyzed FBS, 15.4 µM
# [33] = RPMI 5 mM glucose + 10% dialyzed FBS, 46.1 µM
Compound,cell viability [1] [%],cell viability [2] [%],cell viability [3] [%],cell viability [4] [%],cell viability [5] [%],cell viability [6] [%],cell viability [7] [%],cell viability [8] [%],cell viability [9] [%],cell viability [10] [%],cell viability [11] [%],cell viability [12] [%],cell viability [13] [%],cell viability [14] [%],cell viability [15] [%],cell viability [16] [%],cell viability [17] [%],cell viability [18] [%],cell viability [19] [%],cell viability [20] [%],cell viability [21] [%],cell viability [22] [%],cell viability [23] [%],cell viability [24] [%],cell viability [25] [%],cell viability [26] [%],cell viability [27] [%],cell viability [28] [%],cell viability [29] [%],cell viability [30] [%],cell viability [31] [%],cell viability [32] [%],cell viability [33] [%]
c1cncc(CN2CCC(n3ncc4c(N5CCOCC5)nc(-c5ccc6[nH]ccc6c5)nc43)CC2)c1,93.8,88.8,98.3,90,101,81,66.6,69.2,73.4,58.9,33.1,123,117,111,103,105,95.4,68.2,93,80.3,37.1,11.6,87.1,88.4,94.7,87.2,87.3,96.4,61.9,76.2,66.5,32.6,8.23
Cc1c(CCOc2ccc(C(=O)O)cc2)c2cc(Cl)ccc2n1C(c1ccccc1)c1ccccc1,112,118,104,113,109,105,108,114,105,108,79.3,110,108,104,118,94.3,104,94.9,102,106,106,92.7,114,110,97.1,109,95.9,109,111,104,107,95.3,92.5
CC\1=C(C(\N=C(/N1)C2=CC(=NC=C2)Cl)C3=C(F)C=C(Cl)C=C3)/C(=O)NC4=C(F)C=C5[NH]N=CC5=C4 (stereo unspecified),82.1,84.4,100,94.9,93.2,99.6,104,103,81.2,54.5,10.8,102,86.8,97.3,117,94.5,99.1,99.9,85.4,66.3,51.7,6.87,87.7,90.3,103,108,102,122,96.3,101,81.3,55.2,13.5
CC(=O)O[C@H]1C(=O)[C@]2(C)[C@@H](O)C[C@H]3OC[C@@]3(OC(C)=O)C2[C@H](OC(=O)C4=CC=CC=C4)[C@]5(O)C[C@H](OC(=O)[C@H](O)[C@@H](NC(=O)C6=CC=CC=C6)C7=CC=CC=C7)\C(=C1/C5(C)C)C (stereo partly specified),81.5,50,31.7,27.9,27.8,26.4,26.8,24.1,26.8,22.6,25.9,59.1,30.5,22.3,17,16.2,14.2,16.3,15.7,15.6,15.6,13.5,81.3,48.1,35.2,26.3,24.2,23.3,22.8,22.3,22.4,23.9,22.3
CO[C@H]1/C=C/O[C@@]2(C)Oc3c(C)c(O)c4c(O)c(c5c(nc6cc(C)ccn65)c4c3C2=O)NC(=O)/C(C)=C\C=C\[C@H](C)[C@H](O)[C@@H](C)[C@@H](O)[C@@H](C)[C@H](OC(C)=O)[C@@H]1C,100,97.7,100,107,92.5,112,113,104,47.2,70,1.92,106,120,109,125,94.9,102,115,111,40.5,63.1,4.47,104,109,98.6,109,90.2,96.8,97.1,82.1,32,50.8,1.61
CC(=O)N(C)c1cccc(-c2ccnc3c(C(=O)c4cccs4)cnn23)c1,99.9,88.7,104,37.5,98.7,99.4,107,103,110,90,91.7,108,107,95.5,37.7,112,101,94.1,98.5,101,98.5,97,104,99.7,87,46.9,100,101,102,109,118,112,99.6
C[C@](O)(COc1ccc(C#N)cc1)C(=O)Nc1ccc(C#N)c(C(F)(F)F)c1,70.4,77,90.7,84.9,91.3,95.5,87,84.4,90.5,21.9,89.6,84.9,70.4,99.6,104,90.5,93,102,87.3,103,14.7,39.5,83,81.6,91.9,91.5,95.6,107,97.6,93.9,91,20.1,49.7
